A short description of series [1]: clinical study of skin brightening and skin redness (chromameter readings). To be noted: 0.3% emulsion twice daily. In kind it is in vivo, human. How it is done: The skin brightening efficacy of p-HCA in ethoxydyglycol versus kojic acid also was tested in a clinical study. In this study, an emulsion containing 0.3%, by weight, p-HCA or kojic acid was used on twenty, mostly female, subjects between the ages of 30 to 50 years. The test composition was applied to the abdomen twice daily (a.m. and p.m.). The test was conducted for eight weeks, and chromameter readings were taken at baseline, and after 2, 4, 6, and 8 weeks.

The nature of series [2]: solubility of p-HCA in various solvents (HPLC). In kind it is physicochemical. How it is done:
Various solvents were tested for an ability to dissolve p-HCA and provide a suitable composition for topical application to efficaciously treat hyperpigmentation, e.g., to allow the HCA to permeate the surface of the skin and deposit the p-HCA at the site of melanin formation. p-HCA was added to various solvents, then sonicated for two hours at 35° C. until no further HCA was dissolved. The samples were cooled to room temperature (25° C.) and allowed to stabilize for 15 hours. The undissolved p-HCA was allowed to settle, the supernatant liquid was filtered through a 0.2 micron syringe filter. Approximately 0.08 g of this filtered material was weighed into a 25 ml volumetric flask and diluted to volume with HPLC mobile phase. Two standards were analyzed by HPLC and compared to the two samples. All samples were analyzed by HPLC on a Hypersil ODS C18 column using water, methanol, glacial acetic acid (55:45:1) as the mobile phase. The flow rate was 1 ml/min and the wavelength for detection was 270 nm.

Series [3] is described as follows: skin penetration, Franz diffusion cells. The series is classed as in vitro ADME, human. Here is the method:
In another experiment, a 10% solution of p-HCA in ethoxydiglycol first was prepared. This solution was added to a skin care emulsion in a sufficient amount to provide either 0.3% or 0.1%, by weight, of p-HCA in the final composition. As a comparative example, 0.3%, by weight, of solid p-HCA was added to the same skin care emulsion. The skin care emulsion to which solid p-HCA or the p-HCA solution was added had the following formula (w/w%): • 85.35 water • 0.2 methylparaben • 0.35 xanthan gum • 5.0 butylene glycol • 4.0 sesame oil • 2.5 glyceryl stearate • 0.5 PEG-150 distearate • 1.25 neopentyl glycol dicaprylate/dicaprate • 0.6 emulsifying wax • 0.25 imidazolidinyl urea.
The skin care emulsions containing p-HCA were applied to cadaver skin. Skin penetration of p-HCA was studied using Franz diffusion cells, n=5 (Permegear, Bethlehem, Pa.). The receptor contained an isotonic phosphate buffer with 30% ethanol, and was stirred continuously at 600 rpm. Samples of dermatomed human cadaver skin (NDRA, Philadelphia) were placed on the cells and prehydrated for 1 hour prior to the experiment. One milliliter of each formulation was added to the donor compartment of each cell, which was covered tightly with PARAFIL®. Samples (300 μl) were withdrawn from the receptor compartment every hour over 8 hours, and replaced with 300 μl of fresh receptor solution. After 8 hours, the skin was removed and cut into small pieces. The skin pieces were homogenized using a Kinematica POLYTRON® homogenizer and centrifuged. The supernatant was filtered through 0.22μ filters, and the p-HCA content was quantified.
All samples were analyzed by HPLC on a Hypersil ODS C18 column using water, methanol, glacial acetic acid (55:45:1) as the mobile phase at a flow rate of 1 ml/min and detection at 270 nm. Lag time and flux were obtained from permeation profiles and skin drug content also was recorded.
This experiment was repeated using PEG-4 as the solvent for the p-HCA.
The method used to determine skin permeability was the Franz diffusion method disclosed above. […] In particular, 3.9 mcg/ml of p-HCA was found in the receptor compartment of the skin (i.e., permeated through the skin) as opposed to 16.3 mcg/ml p-HCA found within the skin.

A short description of series [4]: metabolism of p-HCA in homogenized human skin. The series is classed as in vitro ADME. To be noted: eight hours of incubation with skin enzymes, 37° C. How it is done: First, to confirm in vivo activity of p-HCA, the metabolism of p-HCA in the skin was determined. In this test, human skin was homogenized in a PBS (phosphate-buffered saline)-ethanol solution, followed by dissolution of p-HCA. The solution was incubated at 37° C. for 8 hours. Samples were taken after 0, 4, and 8 hours, and were centrifuged. The supernatant was filtered and analyzed by HPLC. […] The amount of p-HCA that is metabolized was considered insignificant with respect to an efficacious treatment of hyperpigmentation.

Setting [5] is: ethoxydiglycol vs solid p-HCA, FIG. 1 and Table 1.
Setting [6] is: formula: 0.5% p-HCA, 53% ethanol, Carbopol 981, glycerin, triethanolamine, water.
The mark [7] stands for this setting: in presence of ethoxydiglycol vs powder form.

For `O=c1cc(CO)occ1O` [kojic acid], the “effect on skin redness” value is “did not reduce redness” in series [1] (throughout the eight-week clinical trial); “induced redness” in series [1] (weeks 4 and 8).

With `O=C(O)C=Cc1ccc(O)cc1` [p-HCA, p-hydroxycinnamic acid], in series [2] (30% hydroethanolic solution, 25° C.), the “solubility in 30% hydroethanolic solution” value came to 0.75 wt %. In addition, in series [2] (PEG-4, 25° C.), the “solubility in PEG-4” value was determined as 18.5 wt %. Besides, the “solubility in PEG-6” value in series [2] (PEG-6, 25° C.) stood at 19.7 wt %. Besides, the “solubility in PEG-8” value in series [2] (PEG-8, 25° C.) was determined as 19.7 wt %. Also, the “solubility in butylene glycol” value in series [2] (butylene glycol, 25° C.) is 2.25 wt %. The “solubility in diethylene glycol” value in series [2] (diethylene glycol, 25° C.) is reported as 18.1 wt %. Further, in series [2] (ethanol, 25° C.), the solubility in ethanol came out at 14.8 wt %. For the same compound, in series [2] (ethoxydiglycol, 25° C.), the solubility in ethoxydiglycol was 19.7 %, by weight. Further, in series [2] (glycereth-26, 25° C.), the “solubility in glycereth-26” value stood at 7 wt %. Besides, the “solubility in pentylene glycol” value in series [2] (pentylene glycol, 25° C.) was 1.75 wt %. The “solubility in silicone fluid DC 193” value in series [2] (silicone fluid DC 193, 25° C.) is listed as 4.7 wt %. Moreover, in series [3] (PEG-4 as the solvent for the p-HCA), the “deposition of p-HCA on the skin compared to a control” value is “significantly increased”. In series [3] (setting [5]), the “elevation of deposition of p-HCA in the skin” value worked out at 93% and the “increase of flux into the skin” value is 107%. Also, in series [3] (setting [6]), the “amount of HCA deposited in the skin relative to amount transmitted through the skin” value is listed as “four times greater”, the “p-HCA found in the receptor compartment (permeated through the skin)” value is 3.9 µg/mL and the “p-HCA found within the skin” value turned out to be 16.3 µg/mL. In series [3] (setting [7]), the “change of flux of p-HCA through the skin” value is given as “doubled”, the “elevation of percent of p-HCA that permeates cadaver skin” value is reported as 43% and the “elevation of percentage of p-HCA that remained within the skin” value was “about 50%”. In addition, in series [4], the p-HCA metabolized came to 3.6%.

The values are drawn from US20070166251A1, “Composition and method for treating hyperpigmented skin” (LIPO CHEMICALS INC., priority 2005, published 2007).
